Consider 5 compounds from ChEMBL document CHEMBL1123809, “Amplification of bleomycin-mediated degradation of DNA” (J Med Chem, 1987).

For the assay, the system named is Nucleic Acid. Description: Activity against DNA binding in calf thymus was determined. It is filed as nucleic-acid assay. The settings on record: Bos taurus.
The compound `CC[n+]1c(-c2ccccc2)c2cc(N)ccc2c2ccc(N)cc21` had a K of 900000 M⁻¹. The result for `CN(C)CCSc1nccc(-c2cccs2)n1` reads 18700 M⁻¹; that for `CN(C)CCSc1nccc(-c2ccc(-c3ccnc(SCCN(C)C)n3)s2)n1`, 1.3e+07 M⁻¹; that for `CN(C)CCCN1C(=O)c2ccc3c4c(ccc(c24)C1=O)C(=O)N(CCCN(C)C)C3=O`, more than 1e+06 M⁻¹. Take `CN(C)CCNc1nccc(-c2cccs2)n1`: the K came out at 4400 M⁻¹.
